PMC11341654 (2024)

Legend:
[1] = isolated peptide ions in the gas phase (ion trap), UV photoabsorption at 220 nm; details: up to 100–500 ms
[2] = deprotonated peptide anions in the gas phase, UV photoabsorption at 220 nm (ion trap); details: up to 100–500 ms
[3] = gas phase; photoabsorption in the VUV as well as X-ray photon energy range (30 to 545 eV); details: cited from earlier work
[4] = UV irradiation in solution; details: cited from earlier work
[5] = protonated peptides irradiated in the gas phase; VUV or soft X-ray photon, carbon ions; details: cited from earlier work

Substance: PGGPPGPKGNSGEPGAPGSKGDTGAK
- cleaved bond [1]: Gly-Pro, major and Pro-Pro and Glu-Pro and Ala-Pro and Asp-Thr and K-G
- cleaved bond [2]: G-P and P-P and E-P and A-P
- cleaved bond [3]: Gly-Pro, major

Substance: (POG)10
- cleaved bond [4]: Gly-Pro, major
- cleaved bond [5]: Gly-Pro, major

Substance: (PPG)10
- cleaved bond [4]: Gly-Pro, major
- cleaved bond [5]: Gly-Pro, major
